Assay results taken from ChEMBL document CHEMBL1201862, “PubChem BioAssay data set” (2004).
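The compound was tested at five concentrations on cells cultured in 96-well plates, with a 48-hour exposure period. The concentration for 50% growth inhibition is given as GI50.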 Active and inactive are the calls of the source. No stated cut-off is given here; in the data, active = GI50 up to about 1.1 µM and inactive = higher.

Tests used:
Assay in all cases: NCI anticancer screen, dose series, 48 h
[1] = test system: SF-539
[2] = test system: COLO 205
[3] = test system: SK-OV-3
[4] = test system: UACC-62
[5] = test system: RXF 631
[6] = test system: A498
[7] = test system: U-251
[8] = test system: SF-295
[9] = test system: NCI-H460
[10] = test system: HOP-18
[11] = test system: T47D
[12] = test system: SF-268
[13] = test system: PC-3
[14] = test system: HCT-15
[15] = test system: Hs-578T
[16] = test system: OVCAR-4
[17] = test system: MOLT-4
[18] = test system: HT-29
[19] = test system: SN12C
[20] = test system: MCF7
[21] = test system: BT-549
[22] = test system: LOX IMVI
[23] = test system: NCI-H522
[24] = test system: HOP-92
[25] = test system: DMS-273
[26] = test system: 786-0
[27] = test system: KM-20L2
[28] = test system: OVCAR-3
[29] = test system: OVCAR-8
[30] = test system: NCI-H23
[31] = test system: SNB-19
[32] = test system: DU-145
[33] = test system: HOP-62
[34] = test system: Malme-3M
[35] = test system: MDA-N
[36] = test system: NCI/ADR-RES
[37] = test system: MDA-MB-435
[38] = test system: XF498
[39] = test system: DMS-114
[40] = test system: KM12
[41] = test system: SNB-75
[42] = test system: M19-MEL
[43] = test system: DLD-1
[44] = test system: IGROV-1
[45] = test system: OVCAR-5
[46] = test system: HL-60
[47] = test system: LXFL 529
[48] = test system: SNB-78
[49] = test system: SK-MEL-5
[50] = test system: M14
[51] = test system: HCC 2998
[52] = test system: EKVX
[53] = test system: K562
[54] = test system: A549
[55] = test system: HCT-116
[56] = test system: TK-10
[57] = test system: UACC-257
[58] = test system: CCRF-CEM
[59] = test system: SR
[60] = test system: NCI-H226
[61] = test system: CAKI-1
[62] = test system: ACHN
[63] = test system: SW-620
[64] = test system: RPMI-8226
[65] = test system: SK-MEL-28
[66] = test system: SK-MEL-2
[67] = test system: UO-31
[68] = test system: RXF 393

CC(=O)OCC1OC(n2c(=S)n(-c3ccc([N+](=O)[O-])cc3)c(=O)c3ccccc32)C(OC(C)=O)C(OC(C)=O)C1OC(C)=O (stereo not given)
GI50 [1]: 14.3 µM (inactive) | GI50 [2]: 27.5 µM (inactive) | GI50 [3]: 23.3 µM (inactive) | GI50 [4]: 15.7 µM (inactive) | GI50 [5]: 19.2 µM (inactive) | GI50 [6]: 25.5 µM (inactive) | GI50 [7]: 18.4 µM (inactive) | GI50 [8]: 23.3 µM (inactive) | GI50 [9]: 21.7 µM (inactive) | GI50 [10]: 13.4 µM (inactive) | GI50 [11]: 17.3 µM (inactive) | GI50 [12]: 18.5 µM (inactive) | GI50 [13]: 15.8 µM (inactive) | GI50 [14]: 29.3 µM | GI50 [15]: 4.46 µM (inactive) | GI50 [16]: 20.8 µM (inactive) | GI50 [17]: 8.22 µM (inactive) | GI50 [18]: 21 µM (inactive) | GI50 [19]: 19.1 µM (inactive) | GI50 [20]: 16.7 µM (inactive) | GI50 [21]: 2.69 µM (inactive) | GI50 [22]: 13.2 µM (inactive) | GI50 [23]: 15.4 µM (inactive) | GI50 [24]: 25.5 µM (inactive) | GI50 [25]: 21.9 µM (inactive) | GI50 [26]: 15.3 µM (inactive) | GI50 [27]: 28.3 µM (inactive) | GI50 [28]: 17.1 µM (inactive) | GI50 [29]: 20.1 µM (inactive) | GI50 [30]: 21.3 µM (inactive) | GI50 [31]: 19.9 µM (inactive) | GI50 [32]: 24.9 µM (inactive) | GI50 [33]: 21.6 µM (inactive) | GI50 [34]: 15.2 µM (inactive) | GI50 [35]: 27.7 µM (inactive) | GI50 [36]: 30.7 µM (inactive) | GI50 [37]: 27 µM (inactive)

CCCCCC(=O)Cc1cc(OC)cc2c1C(=O)Oc1cc(O)c(C(=O)O)c(CC(=O)CCCCC)c1O2
GI50 [1]: > 10 µM (inactive) | GI50 [38]: > 100 µM (inactive) | GI50 [39]: 33.9 µM (inactive) | GI50 [2]: 45 µM (inactive) | GI50 [40]: 46.5 µM (inactive) | GI50 [41]: 55.7 µM (inactive) | GI50 [42]: 26.2 µM (inactive) | GI50 [43]: 35.6 µM (inactive) | GI50 [44]: 39.4 µM (inactive) | GI50 [45]: > 100 µM (inactive) | GI50 [3]: 46.9 µM (inactive) | GI50 [4]: 20.6 µM (inactive) | GI50 [5]: 35.6 µM (inactive) | GI50 [6]: 39 µM (inactive) | GI50 [7]: 15.8 µM (inactive) | GI50 [46]: 38.9 µM (inactive) | GI50 [47]: 55.5 µM (inactive) | GI50 [8]: 55.3 µM (inactive) | GI50 [9]: 52.5 µM (inactive) | GI50 [12]: 35.2 µM (inactive) | GI50 [48]: 44.4 µM (inactive) | GI50 [17]: 27.2 µM (inactive) | GI50 [18]: 41.2 µM (inactive) | GI50 [49]: > 100 µM (inactive) | GI50 [19]: > 10 µM (inactive) | GI50 [50]: 63.2 µM (inactive) | GI50 [51]: 48.5 µM (inactive) | GI50 [52]: 33.1 µM (inactive) | GI50 [53]: 30.6 µM (inactive) | GI50 [54]: 43.2 µM (inactive) | GI50 [22]: 77.8 µM (inactive) | GI50 [23]: 46.3 µM (inactive) | GI50 [25]: 32.1 µM (inactive) | GI50 [26]: 18.9 µM (inactive) | GI50 [55]: 26 µM (inactive) | GI50 [56]: 63.4 µM (inactive) | GI50 [27]: 49.4 µM (inactive) | GI50 [57]: 71.4 µM (inactive) | GI50 [28]: 24 µM (inactive) | GI50 [58]: 40.7 µM (inactive) | GI50 [29]: 47.1 µM (inactive) | GI50 [30]: 19.2 µM (inactive) | GI50 [33]: > 100 µM (inactive) | GI50 [59]: 52.6 µM (inactive) | GI50 [34]: 51.4 µM (inactive) | GI50 [60]: > 100 µM (inactive) | GI50 [61]: > 100 µM (inactive) | GI50 [62]: 35.7 µM (inactive) | GI50 [63]: > 100 µM (inactive) | GI50 [64]: 42 µM (inactive)

OC1=CN=C(c2ccccc2)Oc2ccccc21
GI50 [1]: 19 µM (inactive) | GI50 [39]: > 100 µM (inactive) | GI50 [2]: > 100 µM (inactive) | GI50 [40]: 50.9 µM (inactive) | GI50 [41]: 30.7 µM (inactive) | GI50 [42]: > 100 µM (inactive) | GI50 [65]: > 100 µM (inactive) | GI50 [43]: > 100 µM (inactive) | GI50 [44]: > 100 µM (inactive) | GI50 [3]: > 100 µM (inactive) | GI50 [4]: > 100 µM (inactive) | GI50 [5]: > 100 µM (inactive) | GI50 [6]: > 100 µM (inactive) | GI50 [7]: > 100 µM (inactive) | GI50 [46]: > 100 µM (inactive) | GI50 [47]: > 100 µM (inactive) | GI50 [8]: 32 µM (inactive) | GI50 [9]: > 100 µM (inactive) | GI50 [12]: 41.4 µM (inactive) | GI50 [14]: > 100 µM | GI50 [16]: 47.6 µM (inactive) | GI50 [48]: 80.4 µM (inactive) | GI50 [17]: > 100 µM (inactive) | GI50 [66]: > 100 µM (inactive) | GI50 [18]: > 100 µM (inactive) | GI50 [49]: > 100 µM (inactive) | GI50 [19]: > 100 µM (inactive) | GI50 [50]: > 100 µM (inactive) | GI50 [51]: > 100 µM (inactive) | GI50 [52]: > 100 µM (inactive) | GI50 [53]: > 100 µM (inactive) | GI50 [54]: > 100 µM (inactive) | GI50 [22]: > 100 µM (inactive) | GI50 [24]: > 100 µM (inactive) | GI50 [25]: > 100 µM (inactive) | GI50 [26]: 46.7 µM (inactive) | GI50 [55]: 45.4 µM (inactive) | GI50 [56]: > 100 µM (inactive) | GI50 [27]: > 100 µM (inactive) | GI50 [57]: > 100 µM (inactive) | GI50 [28]: 15.3 µM (inactive) | GI50 [58]: > 100 µM (inactive) | GI50 [29]: > 100 µM (inactive) | GI50 [30]: > 100 µM (inactive) | GI50 [67]: > 100 µM (inactive) | GI50 [31]: 42.5 µM (inactive) | GI50 [33]: 68.1 µM (inactive) | GI50 [34]: > 100 µM (inactive) | GI50 [60]: 33 µM (inactive) | GI50 [62]: > 100 µM (inactive) | GI50 [63]: > 100 µM (inactive) | GI50 [68]: > 100 µM (inactive) | GI50 [64]: > 100 µM (inactive)
